Test results as given in the supplement of paper PMC8617591.

Experiments:
[1] = system: Mycobacterium tuberculosis Erdman (autoluminescent); experiment: total FIC50 (Loewe) at 50% inhibition, three-drug combination (log2); higher = more antagonistic
Experimental: (§1)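 DiaMOND equipotent three-drug combination dose responses (10 doses, 1.5- or 2-fold spacing, centred on IC90) against autoluminescent M. tuberculosis Erdman in 8 in vitro models. Read-out is OD600, or luminescence for the intracellular and dormancy models, normalised to untreated wells. Hill-fit Einf, AUC25 and GRinf are potency metrics; FIC50 and FIC90 are total Loewe fractional inhibitory concentrations as log2 (negative = synergy).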

[2] = system: Mycobacterium tuberculosis Erdman (autoluminescent); experiment: total FIC90 (Loewe) at 90% inhibition, three-drug combination (log2); higher = more antagonistic
Experimental: as §1

[3] = system: Mycobacterium tuberculosis Erdman (autoluminescent); experiment: Einf, fitted maximum growth inhibition of three-drug combination (fraction); higher = stronger maximal inhibition
Experimental: as §1

[4] = system: Mycobacterium tuberculosis Erdman (autoluminescent); experiment: AUC25, normalised area under dose response up to IC25 (three-drug combination) (fraction (0-1)); higher = more potent at low dose
Experimental: as §1

[5] = system: Mycobacterium tuberculosis Erdman (autoluminescent); experiment: GRinf, maximum normalised growth rate inhibition (three-drug combination) (unitless (-1 to 1)); higher = less effect (negative = killing)
Experimental: as §1

COc1nc2ccc(Br)cc2cc1[C@@H](c1ccccc1)[C@@](O)(CCN(C)C)c1cccc2ccccc12 [bedaquiline] + CC(C)/N=c1\cc2n(-c3ccc(Cl)cc3)c3ccccc3nc-2cc1Nc1ccc(Cl)cc1 [clofazimine] + COc1c(N2C[C@@H]3CCCN[C@@H]3C2)c(F)cc2c(=O)c(C(=O)O)cn(C3CC3)c12 [moxifloxacin]
Settings | AUC25, [4] | Einf, [3] | GRinf, [5] | total FIC50, [1] | total FIC90, [2]
in vitro model: acidic pH 5.7, time point: constant (~7 days, model-specific) | 0.0874 | 0.698 | -0.457 | 1.07 | –
in vitro model: acidic pH 5.7, time point: terminal (~4-5 doublings, model-specific) | 0.0681 | 0.957 | -0.368 | 0.792 | 0.0494
in vitro model: intracellular J774, time point: constant = terminal | – | 0.974 | -0.345 | – | 0.0395

Settings | AUC25, [4] | Einf, [3] | GRinf, [5] | total FIC50, [1] | total FIC90, [2]
in vitro model: butyrate, time point: constant (~7 days, model-specific) | 0.0682 | 0.95 | -0.111 | -0.0983 | -0.596
in vitro model: butyrate, time point: terminal (~4-5 doublings, model-specific) | 0.0514 | 0.979 | -0.117 | 0.0193 | -0.388
in vitro model: cholesterol 0.05 mM, time point: constant (~7 days, model-specific) | 0.0732 | 0.724 | -0.218 | -0.685 | –
in vitro model: cholesterol 0.05 mM, time point: terminal (~4-5 doublings, model-specific) | 0.0839 | 0.927 | -0.23 | 0.399 | -1.01
in vitro model: cholesterol-high 0.2 mM, time point: constant (~7 days, model-specific) | 0.094 | 0.97 | -0.382 | -0.248 | 0.136
in vitro model: cholesterol-high 0.2 mM, time point: terminal (~4-5 doublings, model-specific) | 0.0879 | 1 | -0.535 | 0.0978 | -0.0166
in vitro model: dormancy (butyrate + nitrate, low O2), time point: constant (~7 days, model-specific) | 0.0734 | 0.907 | 0.241 | -0.202 | -0.9
in vitro model: dormancy (butyrate + nitrate, low O2), time point: terminal (~4-5 doublings, model-specific) | 0.0897 | 0.997 | -0.093 | -0.168 | 0.176
in vitro model: standard 7H9 glycerol, time point: constant = terminal | 0.0896 | 0.983 | -0.156 | -0.176 | -0.548
in vitro model: valerate, time point: constant (~7 days, model-specific) | 0.121 | 0.959 | -0.201 | 0.443 | –
in vitro model: valerate, time point: terminal (~4-5 doublings, model-specific) | 0.0856 | 0.968 | -0.1 | 0.482 | 1.71

COc1nc2ccc(Br)cc2cc1[C@@H](c1ccccc1)[C@@](O)(CCN(C)C)c1cccc2ccccc12 [bedaquiline] + CC(C)/N=c1\cc2n(-c3ccc(Cl)cc3)c3ccccc3nc-2cc1Nc1ccc(Cl)cc1 [clofazimine] + NC(=O)c1cnccn1 [pyrazinamide]
Settings | AUC25, [4] | Einf, [3] | GRinf, [5] | total FIC50, [1] | total FIC90, [2]
in vitro model: acidic pH 5.7, time point: constant (~7 days, model-specific) | 0.0929 | 0.862 | -0.349 | 0.0846 | –
in vitro model: acidic pH 5.7, time point: terminal (~4-5 doublings, model-specific) | 0.074 | 0.968 | -0.284 | 0.193 | -0.409
in vitro model: intracellular J774, time point: constant = terminal | – | 0.963 | -0.197 | – | -0.109

Settings | AUC25, [4] | Einf, [3] | GRinf, [5] | total FIC50, [1] | total FIC90, [2]
in vitro model: butyrate, time point: constant (~7 days, model-specific) | 0.0756 | 0.946 | -0.0789 | -0.624 | -0.916
in vitro model: butyrate, time point: terminal (~4-5 doublings, model-specific) | 0.0582 | 0.977 | -0.0813 | -0.595 | -1.03
in vitro model: cholesterol 0.05 mM, time point: constant (~7 days, model-specific) | 0.0812 | 0.732 | -0.17 | – | –
in vitro model: cholesterol 0.05 mM, time point: terminal (~4-5 doublings, model-specific) | 0.0926 | 0.939 | -0.225 | 0.513 | –
in vitro model: cholesterol-high 0.2 mM, time point: constant (~7 days, model-specific) | 0.06 | 0.921 | -0.227 | -0.0552 | –
in vitro model: cholesterol-high 0.2 mM, time point: terminal (~4-5 doublings, model-specific) | 0.0776 | 1 | -0.556 | 0.345 | -0.162
in vitro model: dormancy (butyrate + nitrate, low O2), time point: constant (~7 days, model-specific) | 0.0795 | 0.924 | 0.201 | -1.18 | -1.48
in vitro model: dormancy (butyrate + nitrate, low O2), time point: terminal (~4-5 doublings, model-specific) | 0.0671 | 0.991 | -0.181 | -0.97 | -1.37
in vitro model: standard 7H9 glycerol, time point: constant = terminal | 0.0904 | 0.961 | -0.0928 | -0.389 | –
in vitro model: valerate, time point: constant (~7 days, model-specific) | 0.103 | 0.884 | 0.0304 | 0.388 | –
in vitro model: valerate, time point: terminal (~4-5 doublings, model-specific) | 0.0692 | 0.929 | 0.0196 | 0.415 | 0.773

COc1nc2ccc(Br)cc2cc1[C@@H](c1ccccc1)[C@@](O)(CCN(C)C)c1cccc2ccccc12 [bedaquiline] + CC(C)/N=c1\cc2n(-c3ccc(Cl)cc3)c3ccccc3nc-2cc1Nc1ccc(Cl)cc1 [clofazimine] + NNC(=O)c1ccncc1 [isoniazid]
Settings | AUC25, [4] | Einf, [3] | GRinf, [5] | total FIC50, [1] | total FIC90, [2]
in vitro model: acidic pH 5.7, time point: constant (~7 days, model-specific) | 0.11 | 0.842 | -0.379 | 0.675 | –
in vitro model: acidic pH 5.7, time point: terminal (~4-5 doublings, model-specific) | 0.09 | 0.969 | -0.293 | 0.356 | 0.616
in vitro model: intracellular J774, time point: constant = terminal | – | 0.96 | -0.447 | – | -0.134

Settings | AUC25, [4] | Einf, [3] | GRinf, [5] | total FIC50, [1] | total FIC90, [2]
in vitro model: butyrate, time point: constant (~7 days, model-specific) | 0.0622 | 0.945 | -0.1 | -0.0224 | -0.194
in vitro model: butyrate, time point: terminal (~4-5 doublings, model-specific) | 0.0523 | 0.979 | -0.119 | -0.00128 | -0.306
in vitro model: cholesterol 0.05 mM, time point: constant (~7 days, model-specific) | 0.0812 | 0.724 | -0.209 | -0.55 | –
in vitro model: cholesterol 0.05 mM, time point: terminal (~4-5 doublings, model-specific) | 0.0932 | 0.933 | -0.263 | 0.444 | -0.22
in vitro model: cholesterol-high 0.2 mM, time point: constant (~7 days, model-specific) | 0.0765 | 0.955 | -0.396 | 0.226 | 0.206
in vitro model: cholesterol-high 0.2 mM, time point: terminal (~4-5 doublings, model-specific) | 0.0685 | 1 | -0.54 | 0.648 | 0.259
in vitro model: dormancy (butyrate + nitrate, low O2), time point: constant (~7 days, model-specific) | 0.0746 | 0.911 | 0.317 | 0.0126 | -0.362
in vitro model: dormancy (butyrate + nitrate, low O2), time point: terminal (~4-5 doublings, model-specific) | 0.0741 | 0.991 | -0.0967 | -0.283 | -0.303
in vitro model: standard 7H9 glycerol, time point: constant = terminal | 0.0945 | 0.97 | -0.0956 | -0.294 | -0.677
in vitro model: valerate, time point: constant (~7 days, model-specific) | 0.109 | 0.903 | -0.0916 | 0.133 | -0.379
in vitro model: valerate, time point: terminal (~4-5 doublings, model-specific) | 0.0654 | 0.948 | -0.0502 | 0.246 | 0.504
